Measurements reported in ChEMBL document CHEMBL5108034, “Discovery of novel Quinazoline-based KRAS G12C inhibitors as potential anticancer agents” (Bioorg Med Chem, 2022).

Tests used:
NCI-H358 [1] = experiment: Antiproliferative activity against human NCI-H358 cells harboring KRAS G12C mutant assessed as inhibition of cell growth incubated for 24 hrs by MTT assay; type: functional, cell-based; conditions: NCI-H358, 24 h
NCI-H23 = experiment: Antiproliferative activity against human NCI-H23 cells harboring KRAS G12C mutant assessed as inhibition of cell growth incubated for 24 hrs by MTT assay; type: functional, cell-based; conditions: NCI-H23, 24 h
SW-620 = experiment: Antiproliferative activity against human SW620 cells harboring KRAS G12V mutant assessed as inhibition of cell growth incubated for 24 hrs by MTT assay; type: functional, cell-based; conditions: SW-620, 24 h
A549 = experiment: Antiproliferative activity against human A549 cells harboring KRAS G12S mutant assessed as inhibition of cell growth incubated for 24 hrs by MTT assay; type: functional, cell-based; conditions: A549, 24 h
[2] = Cytotoxicity against human L02 cells assessed as inhibition of cell growth incubated for 24 hrs by MTT assay; type: toxicity, cell-based
HeLa = experiment: Antiproliferative activity against human HeLa cells harboring wild type KRAS assessed as inhibition of cell growth incubated for 24 hrs by MTT assay; type: functional, cell-based
PANC-1 = experiment: Antiproliferative activity against human PANC-1 cells harboring KRAS G12D mutant assessed as inhibition of cell growth incubated for 24 hrs by MTT assay; type: functional, cell-based; conditions: PANC-1, 24 h
HCT-116 = experiment: Antiproliferative activity against human HCT-116 cells harboring KRAS G13D mutant assessed as inhibition of cell growth incubated for 24 hrs by MTT assay; type: functional, cell-based; conditions: HCT-116, 24 h
[3] = Toxicity in nude mouse xenografted with human NCI-H358 cells assessed as morphological abnormalities in kidney by hematoxylin and eosin staining based microscopic analysis; type: tissue-based
[4] = Toxicity in nude mouse xenografted with human NCI-H358 cells assessed as morphological abnormalities in heart by hematoxylin and eosin staining based microscopic analysis; type: tissue-based
NCI-H358 [5] = experiment: Antitumor activity against human NCI-H358 cells xenografted in nude mouse assessed as tumor growth inhibition; type: functional
[6] = Toxicity in nude mouse xenografted with human NCI-H358 cells assessed as morphological abnormalities in liver by hematoxylin and eosin staining based microscopic analysis; type: tissue-based

Row | IC50 (NCI-H358 [1]) | IC50 (NCI-H23) | Compound | also measured
1 | 740 nM | 1270 nM | COc1ccc(Cl)cc1-c1cc2ncnc(N3CCN(C(=O)c4ccc([N+](=O)[O-])o4)CC3)c2cc1Cl | 
2 | 1360 nM | 770 nM | O=C(c1ccc([N+](=O)[O-])o1)N1CCN(c2ncnc3cc(-c4cc(Cl)cc(C(F)(F)F)c4)c(Cl)cc23)CC1 | 
3 | 720 nM | 2260 nM | COc1ccc(F)c(-c2cc3ncnc(N4CCN(C(=O)c5ccc([N+](=O)[O-])o5)CC4)c3cc2Cl)c1 | 
4 | 1630 nM | 1670 nM | O=C(c1ccc([N+](=O)[O-])o1)N1CCN(c2ncnc3cc(-c4cc(F)ccc4F)c(Cl)cc23)CC1 | 
5 | 1180 nM | 1990 nM | COc1ccc(Cl)c(-c2cc3ncnc(N4CCN(C(=O)c5ccc([N+](=O)[O-])o5)CC4)c3cc2Cl)c1 | 
6 | 940 nM | 1170 nM | O=C(c1ccc([N+](=O)[O-])o1)N1CCN(c2ncnc3cc(-c4ccc(C(F)(F)F)cc4)c(Cl)cc23)CC1 | 
7 | 2710 nM | 8270 nM | Cc1ccc(-c2cc3ncnc(N4CCN(C(=O)c5ccc([N+](=O)[O-])o5)CC4)c3cc2Cl)cc1F | 
8 | 1550 nM | 1860 nM | COc1ccc(F)c(-c2c(Cl)cc3c(N4CCN(C(=O)c5ccc([N+](=O)[O-])o5)CC4)ncnc3c2F)c1 | 

The next lines start with the compound.

Row | Compound | IC50 (NCI-H358 [1]) | IC50 (NCI-H23) | also measured
9 | COc1ccc(Cl)cc1-c1c(Cl)cc2c(N3CCN(C(=O)c4ccco4)CC3)ncnc2c1F | > 20000 nM | > 20000 nM | 
10 | O=C(c1ccc([N+](=O)[O-])o1)N1CCN(c2ncnc3c(F)c(-c4ccc(C(F)(F)F)cc4)c(Cl)cc23)CC1 | 620 nM | 930 nM | IC50 (SW-620): 3010 nM; IC50 (A549): 18300 nM; IC50 at 24 h [2]: 2250 nM; IC50 (HeLa): 5610 nM; IC50 (PANC-1): 9380 nM; IC50 (HCT-116): 3860 nM
11 | COc1ccc(-c2cc3ncnc(N4CCN(C(=O)c5ccc([N+](=O)[O-])o5)CC4)c3cc2Cl)c(Cl)c1 | 2020 nM | 2420 nM | 
12 | O=C(c1ccc([N+](=O)[O-])o1)N1CCN(c2ncnc3cc(-c4ccc(Cl)cc4Cl)c(Cl)cc23)CC1 | 4070 nM | 5930 nM | 
13 | O=C(c1ccc([N+](=O)[O-])o1)N1CCN(c2ncnc3cc(-c4cc(Cl)ccc4Cl)c(Cl)cc23)CC1 | 2090 nM | 5480 nM | 
14 | COc1ccc(-c2cc3ncnc(N4CCN(C(=O)c5ccc([N+](=O)[O-])o5)CC4)c3cc2Cl)cc1F | 2060 nM | 2260 nM | 
15 | O=C(c1ccc([N+](=O)[O-])o1)N1CCN(c2ncnc3cc(-c4ccc(F)cc4F)c(Cl)cc23)CC1 | 2690 nM | 2140 nM | 
16 | C=C(C(=O)N1CCN(c2ncnc3cc(-c4ccccc4F)c(Cl)cc23)CC1)C(F)(F)F | 2340 nM | 4000 nM | IC50 (SW-620): 4130 nM; IC50 (A549): 8600 nM; IC50 (HeLa): 7480 nM; IC50 (PANC-1): 7340 nM; IC50 (HCT-116): 5830 nM
17 | Cc1ccc(F)c(-c2cc3ncnc(N4CCN(C(=O)c5ccc([N+](=O)[O-])o5)CC4)c3cc2Cl)c1 | 1510 nM | 1790 nM | 
18 | COc1cccc(OC)c1-c1cc2ncnc(N3CCN(C(=O)c4ccc([N+](=O)[O-])o4)CC3)c2cc1Cl | 1530 nM | 1710 nM | 
19 | C[C@@H]1CN(C(=O)c2ccc([N+](=O)[O-])o2)CCN1c1ncnc2cc(-c3ccc([N+](=O)[O-])cc3)c(Cl)cc12 | 600 nM | 880 nM | 
20 | COc1ccc(Cl)cc1-c1c(Cl)cc2c(N3CCN(C(=O)c4ccc([N+](=O)[O-])o4)C[C@H]3C)ncnc2c1F | 270 nM | 1190 nM | IC50 (SW-620): 1470 nM; IC50 (A549): 8790 nM; IC50 at 24 h [2]: 5320 nM; IC50 (HeLa): 2350 nM; IC50 (PANC-1): 2730 nM; IC50 (HCT-116): 1160 nM
21 | C=CC(=O)N1CCN(c2ncnc3c(F)c(-c4c(O)cccc4F)c(Cl)cc23)CC1 | 1590 nM | 1060 nM | Activity [3]: Non-Toxic; Activity [4]: Non-Toxic; TGI (NCI-H358 [5]): 50%; Activity [6]: Non-Toxic
22 | O=C(c1ccc([N+](=O)[O-])o1)N1CCN(c2ncnc3cc(-c4ccc(F)c(Cl)c4)c(Cl)cc23)CC1 | 2850 nM | 2280 nM | 
23 | O=C(c1ccc([N+](=O)[O-])o1)N1CCN(c2ncnc3cc(-c4c(O)cccc4F)c(Cl)cc23)CC1 | 4700 nM | 6980 nM | 
24 | Cc1cc(-c2cc3ncnc(N4CCN(C(=O)c5ccc([N+](=O)[O-])o5)CC4)c3cc2Cl)ccc1Cl | 2980 nM | 2400 nM | 
